Where a name gives a salt, the structure may show the parent alone.
How the values were obtained:
[1] = biological target: T1, gluthathione reductase (GR) (Homo sapiens, UniProt P00390); experiment: Inhibition of recombinant GR (GSSG assay); type: biochemical
T1 sequence (P00390 44-522): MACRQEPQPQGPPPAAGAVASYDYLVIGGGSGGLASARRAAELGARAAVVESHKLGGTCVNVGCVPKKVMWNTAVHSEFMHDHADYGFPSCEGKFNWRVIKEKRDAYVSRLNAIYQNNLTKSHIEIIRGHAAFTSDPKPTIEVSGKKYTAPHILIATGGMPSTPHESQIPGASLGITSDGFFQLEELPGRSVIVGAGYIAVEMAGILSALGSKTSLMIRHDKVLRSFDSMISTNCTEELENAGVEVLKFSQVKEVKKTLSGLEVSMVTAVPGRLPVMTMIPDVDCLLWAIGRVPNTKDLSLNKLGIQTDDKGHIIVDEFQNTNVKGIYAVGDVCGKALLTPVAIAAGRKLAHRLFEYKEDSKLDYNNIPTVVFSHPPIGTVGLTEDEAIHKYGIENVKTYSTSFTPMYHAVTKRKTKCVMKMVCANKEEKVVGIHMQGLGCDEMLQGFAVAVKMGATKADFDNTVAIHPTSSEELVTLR
Procedure: Small molecule inhibition of recombinant thioredoxin reductase 1 (TrxR1) and gluthathione reductase (GR) was examined in 96-well plate format. 15 nM TrxR1 was incubated in the presence of 250 μM NADPH, 0.1 mg/ml BSA, and various concentrations of the compound of Example 1 (1% DMSO final) in 50 mM Tris (pH 7.5) and 2 mM EDTA buffer for 15 minutes. Following the incubation period, 2.5 mM DTNB was added to each well and the change in O.D. at 412 nm was followed. Percent activity was determined using DMSO vehicle and no TrxR1 (blank) controls. 2 nM GR was incubated in the presence of 250 μM NADPH, 0.1 mg/ml BSA, and various concentrations of compounds (1% DMSO final) in 50 mM Tris (pH 7.5) and 2 mM EDTA buffer for 15 minutes. Following the incubation period, 1 mM GSSG was added to each well and the change in O.D. at 340 nm was followed. Percent activity was determined using DMSO vehicle and no GR (blank) controls.

FaDu cell line = experiment: Cell viability inhibition, FaDu cell line; type: cell-based; settings: Homo sapiens, Biological Example 4, 72 hrs
Procedure: (§1) Cell lines were plated 2000 cells/well in 96-well black optical plates in the presence of 10% FBS media containing 25 nM selenite. The following day cells were treated with various concentrations of the compound of Example 1 (0.1% DMSO final) and incubated for 72 hrs. After the incubation Cell-Quanti Blue reagent was added to each well and incubated for additional 3 hrs. Fluorescence was read ex:530 nm/em:590 nm, and percent of viability was determined using DMSO vehicle and no cell (blank) controls.
Using the assays described in Biological Example 1 to assess inhibition of recombinant TrxR1 and GR, the following IC50 values were obtained for the examples described herein. Further, following the protocol described in Biological Example 2, the following IC50 values were obtained for inhibition of cell viability using the FaDu cell line.

HL-60(TB) = experiment: Growth inhibition GI50, HL-60(TB); type: cell-based; settings: Homo sapiens, Leukemia
Procedure: as §1
(§2) Further results obtained in similar experiments were as indicated below (GI50 refers to concentration of compound yielding 50% growth inhibition; E denotes an exponent to the base 10).

MOLT-4 = experiment: Growth inhibition GI50, MOLT-4; type: cell-based; settings: Homo sapiens, Leukemia
Procedure: as §1, §2

SR = experiment: Growth inhibition GI50, SR; type: cell-based; settings: Homo sapiens, Leukemia
Procedure: as §1, §2

A549/ATCC = experiment: Growth inhibition GI50, A549/ATCC; type: cell-based; settings: Homo sapiens, Non-Small Cell Lung Cancer
Procedure: as §1, §2

NCI-H23 = experiment: Growth inhibition GI50, NCI-H23; type: cell-based; settings: Homo sapiens, Non-Small Cell Lung Cancer
Procedure: as §1, §2

NCI-H460 = experiment: Growth inhibition GI50, NCI-H460; type: cell-based; settings: Homo sapiens, Non-Small Cell Lung Cancer
Procedure: as §1, §2

NCI-H522 = experiment: Growth inhibition GI50, NCI-H522; type: cell-based; settings: Homo sapiens, Non-Small Cell Lung Cancer
Procedure: as §1, §2

HCT-116 = experiment: Growth inhibition GI50, HCT-116; type: cell-based; settings: Homo sapiens, Colon Cancer
Procedure: as §1, §2

HCT-15 = experiment: Growth inhibition GI50, HCT-15; type: cell-based; settings: Homo sapiens, Colon Cancer
Procedure: as §1, §2

HT29 = experiment: Growth inhibition GI50, HT29; type: cell-based; settings: Homo sapiens, HT-29, Colon Cancer
Procedure: as §1, §2

KM12 = experiment: Growth inhibition GI50, KM12; type: cell-based; settings: Homo sapiens, Colon Cancer
Procedure: as §1, §2

SF-268 = experiment: Growth inhibition GI50, SF-268; type: cell-based; settings: Homo sapiens, CNS Cancer
Procedure: as §1, §2

SF-539 = experiment: Growth inhibition GI50, SF-539; type: cell-based; settings: Homo sapiens, CNS Cancer
Procedure: as §1, §2

SNB-19 = experiment: Growth inhibition GI50, SNB-19; type: cell-based; settings: Homo sapiens, CNS Cancer
Procedure: as §1, §2

SNB-75 = experiment: Growth inhibition GI50, SNB-75; type: cell-based; settings: Homo sapiens, CNS Cancer
Procedure: as §1, §2

U251 = experiment: Growth inhibition GI50, U251; type: cell-based; settings: Homo sapiens, U-251, CNS Cancer
Procedure: as §1, §2

LOX IMVI = experiment: Growth inhibition GI50, LOX IMVI; type: cell-based; settings: Homo sapiens, Melanoma
Procedure: as §1, §2

SK-MEL-5 = experiment: Growth inhibition GI50, SK-MEL-5; type: cell-based; settings: Homo sapiens, Melanoma
Procedure: as §1, §2

UACC-257 = experiment: Growth inhibition GI50, UACC-257; type: cell-based; settings: Homo sapiens, Melanoma
Procedure: as §1, §2

UACC-62 = experiment: Growth inhibition GI50, UACC-62; type: cell-based; settings: Homo sapiens, Melanoma
Procedure: as §1, §2

SK-OV-3 = experiment: Growth inhibition GI50, SK-OV-3; type: cell-based; settings: Homo sapiens, Ovarian Cancer
Procedure: as §1, §2

ACHN = experiment: Growth inhibition GI50, ACHN; type: cell-based; settings: Homo sapiens, Renal Cancer
Procedure: as §1, §2

SN12C = experiment: Growth inhibition GI50, SN12C; type: cell-based; settings: Homo sapiens, Renal Cancer
Procedure: as §1, §2

PC-3 = experiment: Growth inhibition GI50, PC-3; type: cell-based; settings: Homo sapiens, Prostate Cancer
Procedure: as §1, §2

DU-145 = experiment: Growth inhibition GI50, DU-145; type: cell-based; settings: Homo sapiens, Prostate Cancer
Procedure: as §1, §2

HS 578T = experiment: Growth inhibition GI50, HS 578T; type: cell-based; settings: Homo sapiens, Breast Cancer
Procedure: as §1, §2

T-47D = experiment: Growth inhibition GI50, T-47D; type: cell-based; settings: Homo sapiens, T47D, Breast Cancer
Procedure: as §1, §2

[2] = mouse, in vivo, iv, 10 mg/kg
Procedure: Fox Chase male severe combined immunodeficiency (SCID, Charles River, #250) mice were inoculated with 1×10^6 FaDu cells in PBS at a pre-shaved region located at the anterior lateral thoracic wall. After 13 days of growth, tumors were caliper measured and treatments were initiated. […] Mouse health status was monitored daily, weight was measured, and tumor volume was recorded from caliper measurements.

Work on `COc1ccc([N+](=O)[O-])c(S(=O)(=O)c2ccc(Cl)cc2)n1` [Example 1, 2-((4-Chlorophenyl)sulphonyl)-6-methoxy-3-nitropyridine Hydrochloride] yielded an IC50 ([1]; Biological Example 1, 2 nM GR, 15 minutes incubation) greater than 100 µM, an IC50 ([1]; Biological Example 4) greater than 100 µM and an IC50 (FaDu cell line) of 2.99 µM. For the same compound, the GI50 (HL-60(TB)) was 6.81 µM, the GI50 (MOLT-4) was 3.59 µM and the GI50 (SR) was 2.99 µM. It also gave a GI50 (A549/ATCC) of 18.5 µM, a GI50 (NCI-H23) of 4.58 µM and a GI50 (NCI-H460) of 14.6 µM. It also gave a GI50 (NCI-H522) of 1.86 µM, a GI50 (HCT-116) of 2.9 µM and a GI50 (HCT-15) of 2.05 µM. It also gave a GI50 (HT29) of 3.34 µM, a GI50 (KM12) of 14 µM and a GI50 (SF-268) of 4.57 µM. The GI50 (SF-539) was 3.39 µM, the GI50 (SNB-19) was 13 µM and the GI50 (SNB-75) was 11 µM. For the same compound, the GI50 (U251) was 8.69 µM, the GI50 (LOX IMVI) was 1.98 µM and the GI50 (SK-MEL-5) was 12 µM. It also gave a GI50 (UACC-257) of 11.3 µM, a GI50 (UACC-62) of 3.56 µM and a GI50 (SK-OV-3) of 15.1 µM. It also gave a GI50 (ACHN) of 2.08 µM, a GI50 (SN12C) of 3.82 µM and a GI50 (PC-3) of 17.3 µM. For the same compound, the GI50 (DU-145) was 9.63 µM, the GI50 (HS 578T) was 13 µM and the GI50 (T-47D) was 2.12 µM. For the same compound, the “Signs of general or systemic toxic effects” value [2] was “no overt signs of general or systemic toxic effects”.

Source: patent publication US10899710B2, “Pyridines and their use in the treatment of cancer” (The United States of America, as represented by the …, priority 2015, dated 2021)
